Measured values reported in PubChem BioAssay (NCI).
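Growth conditions: 96-well plates. Treatment: test compound, 48 hours, 5 concentrations. Analysis: linear interpolation between bracketing concentrations; unreached endpoints set to highest concentration. TGI: total growth inhibition.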

How the values were obtained:
Assay in all cases: NCI anticancer screen, dose series, 48 h
[1] = test system: HOP-62 NSCLC
[2] = test system: NCI-H226 lung
[3] = test system: A549 NSCLC
[4] = test system: SK-MEL-28 melanoma
[5] = test system: OVCAR-3 ovarian
[6] = test system: OVCAR-4 ovarian
[7] = test system: COLO 205 colon
[8] = test system: SF-268 CNS
[9] = test system: TK-10 renal
[10] = test system: NCI-H23 lung
[11] = test system: KM12 colon
[12] = test system: SNB-19 CNS
[13] = test system: SNB-75 CNS
[14] = test system: SK-OV-3 ovarian
[15] = test system: CAKI-1 renal
[16] = test system: HCT-15 colon
[17] = test system: OVCAR-5 ovarian
[18] = test system: HS 578T breast
[19] = test system: MCF7 breast
[20] = test system: ACHN renal
[21] = test system: PC-3 prostate
[22] = test system: NCI/ADR-RES ovarian
[23] = test system: K-562 leukemia
[24] = test system: SF-539 CNS
[25] = test system: CCRF-CEM leukemia
[26] = test system: EKVX NSCLC
[27] = test system: SR leukemia
[28] = test system: SN12C renal
[29] = test system: HT29 colon
[30] = test system: U251 CNS
[31] = test system: DU-145 prostate
[32] = test system: NCI-H460 lung
[33] = test system: HL-60(TB) leukemia
[34] = test system: LOX IMVI melanoma
[35] = test system: MOLT-4 leukemia
[36] = test system: RXF 393 renal
[37] = test system: UACC-257 melanoma
[38] = test system: SK-MEL-5 melanoma
[39] = test system: BT-549 breast
[40] = test system: MDA-MB-435
[41] = test system: MDA-MB-231 breast
[42] = test system: NCI-H522 lung
[43] = test system: HOP-92 NSCLC
[44] = test system: UACC-62 melanoma
[45] = test system: HCC-2998 colon
[46] = test system: OVCAR-8 ovarian
[47] = test system: RPMI-8226 leukemia
[48] = test system: UO-31 renal
[49] = test system: SW-620 colon
[50] = test system: SF-295 CNS
[51] = test system: M14 melanoma
[52] = test system: 786-0 renal
[53] = test system: IGROV1 ovarian
[54] = test system: T-47D breast
[55] = test system: MDA-N
[56] = test system: MALME-3M melanoma
[57] = test system: HCT-116 colon
[58] = test system: SK-MEL-2 melanoma
[59] = test system: A498 renal

Measured: TGI

COC(=O)[C@@]12CN(C)[C@@H](C(C)(C)C)N1C(=O)OC2c1ccccc1 (stereo partly specified)
not listed: [57] | [58] | [59]
> 100 µM: all other assays above

O=C(NC(=S)Nc1ccc2c(c1)Sc1ccccc1O2)c1ccccc1
93.2 µM: [56]
49.6 µM: [30]
64.5 µM: [36]
92.3 µM: [6]
95.9 µM: [25]
79.4 µM: [50]
54.3 µM: [9]
69 µM: [43]
28.5 µM: [21]
48.1 µM: [52]
48.8 µM: [58]
40.3 µM: [13]
64.6 µM: [24]
57.8 µM: [41]
16.1 µM: [27]
49.2 µM: [45]
not listed: [59]
> 100 µM: all other assays above

C=C(CCOC)CCC1CCCCC/C1=N\N(C)C (stereo unspecified)
not listed: [9] | [24] | [37] | [43]
> 100 µM: all other assays above

O=NN1CCNC1Cc1ccccc1 (stereo unspecified)
72.6 µM: [13]
not listed: [15] | [58] | [59]
> 100 µM: all other assays above

COC(=O)/C=C\[C@H]1[C@H](C)N1S(=O)(=O)c1ccc(C)cc1 (stereo partly specified)
46 µM: [42]
not listed: [13] | [43] | [48]
> 100 µM: all other assays above
